{"source": "patent US12686687B2", "about": "“Compounds and uses thereof” (Foghorn Therapeutics Inc., priority 2019, dated 2026)", "key": {"[1]": {"target": "T1, BRD9 bromodomain (Flag-BRD9 P133-K239; Swiss Prot Q9H8M2) (Homo sapiens, UniProt Q9H8M2)", "T1 construct": "His-Flag-BRD9 (P133-K239); Swiss Prot Q9H8M2; His6 with TEV site (mgsshhhhhhenlyfq/) (N, cleaved yes); made in house", "T1 sequence (Q9H8M2 133-239)": "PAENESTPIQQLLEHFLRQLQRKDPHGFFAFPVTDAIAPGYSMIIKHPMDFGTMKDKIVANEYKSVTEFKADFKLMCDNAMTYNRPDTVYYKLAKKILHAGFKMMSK", "assay": "BRD9 bromodomain TR-FRET competition binding assay", "details": "3 nM Flag-BRD9, 3.75 nM biotinylated ligand, 90 minutes at room temperature", "procedure": "Cleaved His tag was removed by purification. […] DMSO or 3-fold serially diluted compounds were then added to the Proxiplate followed by addition of Flag-BRD9. After a 10-minute incubation at room temperature, Eu-W1024 anti-FLAG (PerkinElmer, AD0273) was added."}, "[2]": {"target": "T2, Nanoluciferase-BRD9 fusion protein (3×FLAG-NLuc-BRD9) in SYO-1 cells (Homo sapiens, UniProt Q9H8M2)", "T2 construct": "expressed in transfected cells; host or cells: SYO-1", "T2 sequence (Q9H8M2 1-597)": "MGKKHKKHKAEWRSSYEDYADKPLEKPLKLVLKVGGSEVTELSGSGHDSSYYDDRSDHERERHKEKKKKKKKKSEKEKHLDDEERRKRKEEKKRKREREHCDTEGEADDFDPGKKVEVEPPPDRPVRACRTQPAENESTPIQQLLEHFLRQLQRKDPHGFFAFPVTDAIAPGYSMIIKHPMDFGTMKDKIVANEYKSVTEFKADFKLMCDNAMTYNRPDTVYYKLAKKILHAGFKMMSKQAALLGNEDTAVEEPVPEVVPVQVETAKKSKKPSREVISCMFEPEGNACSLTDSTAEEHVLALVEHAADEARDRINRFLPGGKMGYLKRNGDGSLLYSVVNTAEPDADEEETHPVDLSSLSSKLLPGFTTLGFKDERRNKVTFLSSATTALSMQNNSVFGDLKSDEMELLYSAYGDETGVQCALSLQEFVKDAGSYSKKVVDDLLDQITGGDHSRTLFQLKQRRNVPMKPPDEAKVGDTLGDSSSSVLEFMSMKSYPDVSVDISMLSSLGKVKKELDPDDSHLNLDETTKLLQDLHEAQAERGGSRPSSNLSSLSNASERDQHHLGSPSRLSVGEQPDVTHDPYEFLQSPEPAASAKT", "assay": "SYO1 BRD9 NanoLuc degradation assay", "assay_type": "cell-based", "details": "6 hours treatment, 1 μM top dose; read-out: SYO1 BRD9-NanoLuc degradation IC50", "procedure,_shortened": "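Stable SYO-1 line expressing 3×FLAG-NLuc-BRD9 was seeded at 8000 cells/well, then treated next day for 6 h with 10-point 3-fold dilutions (top 1 μM final). Nano-Glo luminescence was read. % inhibition was normalised to DMSO (high control) and 1 μM reference BRD9 degrader (low control).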"}}, "data": [{"smiles": "COc1cc(-c2cn(C)c(=O)c3cc(NC(=O)C4CCN(C(=O)CCOCCOCCNc5cccc6c5C(=O)N(C5CCC(=O)NC5=O)C6=O)CC4)sc23)cc(OC)c1CN(C)C", "note": "(stereo not drawn) [Compound D4, N-(7-[4-[(dimethylamino)methyl]-3,5-dimethoxyphenyl]-5-methyl-4-oxothieno[3,2-c]pyridin-2-yl)-1-[3-[2-(2-[[2-(2,6-dioxopiperidin-3-yl)-1,3-dioxoisoindol-4-yl]amino]ethoxy)ethoxy]propanoyl]piperidine-4-carboxamide]", "values": [{"measurement": "IC50", "setting": "[1]", "result": "> 10", "unit": "nM"}, {"measurement": "DC50", "setting": "[2]", "result": "> 10", "unit": "nM"}]}, {"smiles": "COc1cc(-c2cn(C)c(=O)c3cc(NC(=O)C4CCCN(C(=O)CCOCCOCCNc5cccc6c5C(=O)N(C5CCC(=O)NC5=O)C6=O)C4)sc23)cc(OC)c1CN(C)C", "note": "(stereo not drawn) [Compound D5, N-(7-[4-[(dimethylamino)methyl]-3,5-dimethoxyphenyl]-5-methyl-4-oxothieno[3,2-c]pyridin-2-yl)-1-[3-[2-(2-[[2-(2,6-dioxopiperidin-3-yl)-1,3-dioxoisoindol-4-yl]amino]ethoxy)ethoxy]propanoyl]piperidine-3-carboxamide]", "values": [{"measurement": "IC50", "setting": "[1]", "result": "> 100", "unit": "nM"}, {"measurement": "DC50", "setting": "[2]", "result": "> 1000", "unit": "nM"}]}, {"smiles": "COc1cc(-c2cn(C)c(=O)c3cc(NC(=O)C4CCN(CCCCCOc5cccc6c5C(=O)N(C5CCC(=O)NC5=O)C6=O)CC4)sc23)cc(OC)c1CN(C)C", "note": "(stereo not drawn) [Compound D6, N-(7-[4-[(dimethylamino)methyl]-3,5-dimethoxyphenyl]-5-methyl-4-oxothieno[3,2-c]pyridin-2-yl)-1-(5-[[2-(2,6-dioxopiperidin-3-yl)-1,3-dioxoisoindol-4-yl]oxy]pentyl)piperidine-4-carboxamide]", "values": [{"measurement": "IC50", "setting": "[1]", "result": "< 10", "unit": "nM"}, {"measurement": "DC50", "setting": "[2]", "result": "> 1000", "unit": "nM"}]}, {"smiles": "COc1cc(-c2cn(C)c(=O)c3cc(NC(=O)[C@@H]4CCCN(C(=O)CCCCOc5cccc6c5C(=O)N(C5CCC(=O)NC5=O)C6=O)C4)sc23)cc(OC)c1CN(C)C", "note": "(stereo partly drawn) [Compound D7, (3R)—N-(7-[4-[(dimethylamino)methyl]-3,5-dimethoxyphenyl]-5-methyl-4-oxothieno[3,2-c]pyridin-2-yl)-1-(5-[[2-(2,6-dioxopiperidin-3-yl)-1,3-dioxoisoindol-4-yl]oxy]pentanoyl)piperidine-3-carboxamide]", "values": [{"measurement": "IC50", "setting": "[1]", "result": "> 100", "unit": "nM"}, {"measurement": "DC50", "setting": "[2]", "result": "> 100", "unit": "nM"}]}, {"smiles": "COc1cc(-c2cn(C)c(=O)c3cc(NC(=O)[C@H]4CCCN(C(=O)CCCCOc5cccc6c5C(=O)N(C5CCC(=O)NC5=O)C6=O)C4)sc23)cc(OC)c1CN(C)C", "note": "(stereo partly drawn) [Compound D8, (3S)—N-(7-[4-[(dimethylamino)methyl]-3,5-dimethoxyphenyl]-5-methyl-4-oxothieno[3,2-c]pyridin-2-yl)-1-(5-[[2-(2,6-dioxopiperidin-3-yl)-1,3-dioxoisoindol-4-yl]oxy]pentanoyl)piperidine-3-carboxamide]", "values": [{"measurement": "IC50", "setting": "[1]", "result": "> 100", "unit": "nM"}, {"measurement": "DC50", "setting": "[2]", "result": "> 100", "unit": "nM"}]}, {"smiles": "COc1cc(-c2cn(C)c(=O)c3cc(NC(=O)C4CCCN(CCCCCOc5cccc6c5C(=O)N(C5CCC(=O)NC5=O)C6=O)C4)sc23)cc(OC)c1CN(C)C", "note": "(stereo not drawn) [Compound D9, N-(7-[4-[(dimethylamino)methyl]-3,5-dimethoxyphenyl]-5-methyl-4-oxothieno[3,2-c]pyridin-2-yl)-1-(5-[[2-(2,6-dioxopiperidin-3-yl)-1,3-dioxoisoindol-4-yl]oxy]pentyl)piperidine-3-carboxamide]", "values": [{"measurement": "IC50", "setting": "[1]", "result": "> 10", "unit": "nM"}, {"measurement": "DC50", "setting": "[2]", "result": "> 1000", "unit": "nM"}]}, {"smiles": "COc1cc(-c2cn(C)c(=O)c3cc(C(=O)NC4CCN(C(=O)CCCCOc5cccc6c5C(=O)N(C5CCC(=O)NC5=O)C6=O)CC4)sc23)cc(OC)c1CN(C)C", "note": "(stereo not drawn) [Compound D10, 7-(4-((dimethylamino)methyl)-3,5-dimethoxyphenyl)-N-(1-(5-((2-(2,6-dioxopiperidin-3-yl)-1,3-dioxoisoindolin-4-yl)oxy)pentanoyl)piperidin-4-yl)-5-methyl-4-oxo-4,5-dihydrothieno[3,2-c]pyridine-2-carboxamide]", "values": [{"measurement": "IC50", "setting": "[1]", "result": "< 10", "unit": "nM"}, {"measurement": "DC50", "setting": "[2]", "result": "< 10", "unit": "nM"}]}, {"smiles": "COc1cc(-c2cn(C)c(=O)c3cc(C(=O)NC4CCN(CCCCCOc5cccc6c5C(=O)N(C5CCC(=O)NC5=O)C6=O)CC4)sc23)cc(OC)c1CN(C)C", "note": "(stereo not drawn) [Compound D11, 7-(4-((dimethylamino)methyl)-3,5-dimethoxyphenyl)-N-(1-(5-((2-(2,6-dioxopiperidin-3-yl)-1,3-dioxoisoindolin-4-yl)oxy)pentyl)piperidin-4-yl)-5-methyl-4-oxo-4,5-dihydrothieno[3,2-c]pyridine-2-carboxamide]", "values": [{"measurement": "IC50", "setting": "[1]", "result": "< 10", "unit": "nM"}, {"measurement": "DC50", "setting": "[2]", "result": "> 1000", "unit": "nM"}]}, {"smiles": "COc1cc(-c2cn(C)c(=O)c3cc(NC(=O)C4CCN(C(=O)CCCCOc5cccc6c5C(=O)N(C5CCC(=O)NC5=O)C6=O)CC4)sc23)cc(OC)c1CN(C)C", "note": "(stereo not drawn) [Compound D12, N-(7-[4-[(dimethylamino)methyl]-3,5-dimethoxyphenyl]-5-methyl-4-oxothieno[3,2-c]pyridin-2-yl)-1-(5-[[2-(2,6-dioxopiperidin-3-yl)-1,3-dioxoisoindol-4-yl]oxy]pentanoyl)piperidine-4 carboxamide]", "values": [{"measurement": "IC50", "setting": "[1]", "result": "< 10", "unit": "nM"}, {"measurement": "DC50", "setting": "[2]", "result": "< 10", "unit": "nM"}]}, {"smiles": "COc1cc(-c2cn(C)c(=O)c3cc(C(=O)NC4CCN(CCCCCOc5cccc6c5C(=O)N(C5CCC(=O)NC5=O)C6=O)CC4(F)F)sc23)cc(OC)c1CN(C)C", "note": "(stereo not drawn) [Compound D13, 7-[4-[(dimethylamino)methyl]-3,5-dimethoxyphenyl]-N-[1-(5-[[2-(2,6-dioxopiperidin-3-yl)-1,3-dioxoisoindol-4-yl]oxy]pentyl)-3,3-difluoropiperidin-4-yl]-5-methyl-4-oxothieno[3,2-c]pyridine-2-carboxamide]", "values": [{"measurement": "IC50", "setting": "[1]", "result": "< 10", "unit": "nM"}, {"measurement": "DC50", "setting": "[2]", "result": "< 10", "unit": "nM"}]}, {"smiles": "COc1cc(-c2cn(C)c(=O)c3cc(C(=O)NC4CCN(C)CC4)sc23)cc(OC)c1CN(C)CC(=O)NCCOCCOc1cccc2c1C(=O)N(C1CCC(=O)NC1=O)C2=O", "note": "(stereo not drawn) [Compound D14, 7-(4-[[([[2-(2-[[2-(2,6-dioxopiperidin-3-yl)-1,3-dioxoisoindol-4 yl]oxy]ethoxy)ethyl]carbamoyl]methyl)(methyl)amino]methyl]-3,5-dimethoxyphenyl)-5-methyl-N-(1-methylpiperidin-4-yl)-4-oxothieno[3,2-c]pyridine-2-carboxamide]", "values": [{"measurement": "IC50", "setting": "[1]", "result": "> 10", "unit": "nM"}, {"measurement": "DC50", "setting": "[2]", "result": "> 100", "unit": "nM"}]}, {"smiles": "COc1cc(-c2cn(C)c(=O)c3cc(C(=O)NC4CCN(CCCCCOc5ccc6c(c5)C(=O)N(C5CCC(=O)NC5=O)C6=O)CC4(F)F)sc23)cc(OC)c1CN(C)C", "note": "(stereo not drawn) [Compound D15, 7-[4-[(dimethylamino)methyl]-3,5-dimethoxyphenyl]-N-[1-(5-[[2-(2,6-dioxopiperidin-3-yl)-1,3-dioxoisoindol-5-yl]oxy]pentyl)-3,3-difluoropiperidin-4-yl]-5-methyl-4-oxothieno[3,2-c]pyridine-2-carboxamide]", "values": [{"measurement": "IC50", "setting": "[1]", "result": "< 10", "unit": "nM"}, {"measurement": "DC50", "setting": "[2]", "result": "< 10", "unit": "nM"}]}]}
